Consider five molecules from article PMC10566733 (PLOS ONE, 2023).

Several values for one entry are separate records, joined by “and”; a condition that tells them apart may be missing. Identical values can stand only once. Like-named read-outs stand apart in the source and are kept apart here. Residues, ends and D or L forms follow the SMILES beside them. *: point of attachment. FITC = O=C1OC2(c3ccc(O)cc3Oc3cc(O)ccc32)c2ccc(NC(=S)*)cc21

Data set [1] deals with bEnd.3 mouse brain endothelial cells. On the procedure: The bEnd.3 (mouse brain endothelial cell) cell line, purchased from Bioresource Collection and Research Center (BCRC, Taiwan), was used in this study. Prior to experiments, the cells were cultured in Dulbecco’s modified Eagle’s medium (DMEM; HyClone, cat. #SH30003.02) with 10% fetal bovine serum (Gibco, cat. #10437028) and 1% penicillin-streptomycin (Gibco, cat. #15140112), and were passaged every 2–3 days with 0.25% trypsin-EDTA (Gibco, cat. #25200056).
Cellular metabolic activity was measured by MTT (thiazolyl blue tetrazolium bromide) assay 24 h after treatment by normothermia (37°C), hypothermia (4°C), sodium azide (NaN3)/2-deoxy-D-glucose (2-DG), cytochalasin D, 5-(N-ethyl-N-isopropyl)-amiloride (EIPA), or methyl-beta-cyclodextrin (MβCD). In brief, MTT assay was performed with 2000 cells in culture by first replacing the cell culture medium with medium containing 0.5 mg/ml MTT (Alfa Aesar, cat. #L11939). After a 4-h incubation period to allow for MTT metabolism, the MTT-containing medium was replaced with 100 μl of dimethyl sulfoxide (DMSO; JT Baker), and the culture plate was placed on a shaker for 10 min to allow for dissolution of the violet crystal metabolites. Thereafter, the optical density of the metabolite was measured at 570 nm by an ELISA reader. The optical density of the metabolite in the hypothermia and drug treatment groups was expressed as percentage relative to the optical density of the metabolite in the normothermia and control groups, respectively.

Data set [2] has as its system monolayer of bEnd.3 mouse brain endothelial cells. Kind of data set: Permeability across a monolayer of brain endothelial cells (in vitro BBB model). Format: in vitro ADME. More on the design: Diffusion of FITC-TAT across bEnd.3 monolayer / Diffusion of FITC-linked peptide across bEnd.3 monolayer / Diffusion of FITC-TAT across bEnd.3 monolayer, FITC-TAT + TAT / Diffusion of FITC-TAT across bEnd.3 monolayer, FITC-TAT + TATK/R>A: unit not given here. Particulars: for Rate of diffusion across the monolayer compared with FITC-TAT: bEnd.3 monolayer; for Diffusion of FITC-linked peptide across bEnd.3 monolayer: fluorescence spectrophotometry.

[3] abbreviates: peptide 1 μM (Fig 3A), diffusion time 0.1 h, individual cultures n = 4.
Setting [4] is: peptide 1 μM (Fig 3A), diffusion time 4 h, individual cultures n = 4.
[5] abbreviates: peptide 1 μM (Fig 3A), diffusion time 12 h, individual cultures n = 4.
Where [6] appears, read: peptide 1 μM (Fig 3A), diffusion time 24 h, individual cultures n = 4.
The mark [7] stands for this setting: peptide 3 μM (Fig 3B), diffusion time 0.1 h, individual cultures n = 4.
[8] abbreviates: peptide 3 μM (Fig 3B), diffusion time 4 h, individual cultures n = 4.
Where [9] appears, read: peptide 3 μM (Fig 3B), diffusion time 12 h, individual cultures n = 4.
Where [10] appears, read: peptide 3 μM (Fig 3B), diffusion time 24 h, individual cultures n = 4.
The mark [11] stands for this setting: peptide 10 μM (Fig 3C), diffusion time 0.1 h, individual cultures n = 4.
[12] abbreviates: peptide 10 μM (Fig 3C), diffusion time 4 h, individual cultures n = 4.
Setting [13] is: peptide 10 μM (Fig 3C), diffusion time 12 h, individual cultures n = 4.
[14] abbreviates: peptide 10 μM (Fig 3C), diffusion time 24 h, individual cultures n = 4.

As for `CCN(c1nc(N)c(C(=O)N=C(N)N)nc1Cl)C(C)C` [EIPA, 5-(N-ethyl-N-isopropyl)-amiloride], the “Effect on cellular metabolic activity, MTT” value (“Effect” below) in data set [1] is “markedly decreased cellular metabolic activity”.

For `C[C@H](NC(=O)[C@H](C)NC(=O)[C@H](C)NC(=O)[C@H](CCC(N)=O)NC(=O)[C@H](C)NC(=O)[C@H](C)NC(=O)[C@H](C)NC(=O)[C@H](C)NC(=O)[C@H](C)NC(=O)CNC(=O)[C@H](Cc1ccc(O)cc1)NC(=S)Nc1ccc2c(c1)C(=O)OC21c2ccc(O)cc2Oc2cc(O)ccc21)C(=O)O` [FITC-TATK/R>A] ({FITC}-YGAAAAAQAAA-OH), the “Rate of diffusion across the monolayer compared with FITC-TAT” value was “much lower rate than FITC-TAT” in data set [2] (1 μM concentration, Fig 3A); “much lower rate than FITC-TAT” in data set [2] (3 μM concentration, Fig 3B); “much lower rate than FITC-TAT” in data set [2] (10 μM concentration, Fig 3C). Besides, the “Diffusion of FITC-linked peptide across bEnd.3 monolayer” value in data set [2] (setting [3]) was 16.9505 and 16.508 and 16.5507 and 15.9581; in data set [2] (setting [4]), 28.9506 and 32.0869 and 31.9736 and 31.2514; in data set [2] (setting [5]) it was 42.2787 and 47.1236 and 45.2026 and 46.9823; in data set [2] (setting [6]), 65.8175 and 68.5893 and 66.6226 and 69.1937; in data set [2] (setting [7]), 6.156 and 4.865 and 2.668 and 3.238; in data set [2] (setting [8]) it was 19.8822 and 11.958 and 7.983 and 9.049. Further, the “Diffusion of FITC-linked peptide across bEnd.3 monolayer” value in data set [2] (setting [9]) was 39.1651 and 26.1724 and 19.7108 and 16.4957; in data set [2] (setting [10]), 49.6596 and 34.462 and 23.6779 and 22.9503; in data set [2] (setting [11]), 1.811 and 1.623 and 2.572 and 1.851; in data set [2] (setting [12]), 18.7947 and 19.4252 and 20.5729 and 16.0903; in data set [2] (setting [13]), 38.7338 and 38.9661 and 39.2385 and 32.797; in data set [2] (setting [14]), 65.0223 and 61.702 and 66.1075 and 57.2466. Moreover, the “Diffusion of FITC-linked peptide across bEnd.3 monolayer” value is 2.221 and 2.035 and 1.973 in data set [2] (peptide 10 μM alone (Fig 3D), diffusion time 0.1 h, individual cultures n = 3); 29.1435 and 26.4948 and 29.3071 in data set [2] (peptide 10 μM alone (Fig 3D), diffusion time 12 h, individual cultures n = 3); 54.4105 and 51.9054 and 56.2316 in data set [2] (peptide 10 μM alone (Fig 3D), diffusion time 24 h, individual cultures n = 3).

Consider `N=C(N)NCCC[C@H](NC(=O)[C@H](CCCNC(=N)N)NC(=O)[C@H](CCCCN)NC(=O)[C@H](Cc1ccc(O)cc1)NC(=O)[C@H](CCCNC(=N)N)NC(=O)[C@H](CCCNC(=N)N)NC(=O)[C@H](CCCNC(=N)N)NC(=O)[C@H](CCCNC(=N)N)NC(=O)[C@H](CCCCN)NC(=S)Nc1ccc2c(c1)C(=O)OC21c2ccc(O)cc2Oc2cc(O)ccc21)C(=O)N[C@@H](CCC(N)=O)C(=O)NCC(=O)O` [FITC-TATscrambled] ({FITC}-KRRRRYKRRQG-OH), for which the “Rate of diffusion across the monolayer compared with FITC-TAT” value is on record as “marginally higher rate than FITC-TAT” in data set [2] (1 μM concentration, Fig 3A); “rate equal to that of FITC-TAT” in data set [2] (3 μM concentration, Fig 3B); “marginally lower than FITC-TAT” in data set [2] (10 μM concentration, Fig 3C). The “Diffusion of FITC-linked peptide across bEnd.3 monolayer” value is 16.6121 and 16.5353 and 16.6054 and 15.9771 in data set [2] (setting [3]); 37.5047 and 37.4667 and 38.2192 and 36.5367 in data set [2] (setting [4]); 71.5027 and 70.7894 and 73.1753 and 67.019 in data set [2] (setting [5]); 112.675 and 114.406 and 111.607 and 110.916 in data set [2] (setting [6]); 5.913 and 5.203 in data set [2] (setting [7]); 27.0594 (2×) and 32.066 and 20.6139 in data set [2] (setting [8]). Further, the “Diffusion of FITC-linked peptide across bEnd.3 monolayer” value was 76.2224 (2×) and 56.9939 and 73.6994 in data set [2] (setting [9]); 111.452 (2×) and 91.4132 and 89.6289 in data set [2] (setting [10]); 1.995 and 1.727 and 1.576 and 1.501 in data set [2] (setting [11]); 22.9531 and 16.5248 and 15.9626 and 15.9604 in data set [2] (setting [12]); 52.8508 and 41.023 and 42.3549 and 44.9043 in data set [2] (setting [13]); 105.008 and 91.7182 and 94.732 and 94.0226 in data set [2] (setting [14]).

Turning to `C=C1[C@@H](C)[C@H]2[C@H](Cc3ccccc3)NC(=O)[C@]23[C@H](OC(C)=O)/C=C/[C@@](C)(O)C(=O)[C@@H](C)C/C=C/[C@H]3[C@@H]1O` [cytochalasin D], the “Effect” value in data set [1] (bEnd.3, pre-treatment for 30 min followed by washout, Fig 4A) is recorded as “had no effect on cellular metabolic activity”; in data set [1] (bEnd.3, sustained treatment for 24 h, Fig 4A) it was “increased cellular metabolic activity in a concentration-dependent manner”.

methyl-beta-cyclodextrin [MβCD]: in data set [1], the “Effect” value was “markedly decreased cellular metabolic activity”.
